# Measured values taken from PubChem BioAssay AID200 (DTP/NCI, 2004).
# “And” between values parts separate entries of the source, which are not always exact repeats. Equal values may be shown once. Inconclusive results and toxic doses are left out.
# Test system: B6C3F1 mice, B16 melanoma ip, median survival T/C
# Assay: NCI In Vivo Anticancer Drug Screen. Data for tumor model B16 Melanoma (intraperitoneal) in B6C3F1 mice
# Details: endpoint: median survival time, higher = longer survival
# How it was run: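 Antitumor effect was judged in mice with transplanted tumors by dividing the treated group's survival measure by that of vehicle controls.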
# [1] = dose: 1.0 mg/kg/injection, schedule: Q01DX009 (ip), vehicle: saline
# [2] = dose: 2.0 mg/kg/injection, schedule: Q01DX009 (ip), vehicle: saline
# [3] = dose: 3.12 mg/kg/injection, schedule: Q01DX009 (ip), vehicle: saline with Tween-80
# [4] = dose: 12.5 mg/kg/injection, schedule: Q01DX009 (ip), vehicle: saline with Tween-80
# [5] = dose: 5.0 mg/kg/injection, schedule: Q01DX009 (ip), vehicle: saline
# [6] = dose: 12.5 mg/kg/injection, schedule: Q01DX009 (ip), vehicle: Klucel (hydroxypropylcellulose) (HPC)
# [7] = dose: 25.0 mg/kg/injection, schedule: Q01DX009 (ip), vehicle: Klucel (hydroxypropylcellulose) (HPC)
# [8] = dose: 50.0 mg/kg/injection, schedule: Q01DX009 (ip), vehicle: Klucel (hydroxypropylcellulose) (HPC)
# [9] = dose: 100.0 mg/kg/injection, schedule: Q01DX009 (ip), vehicle: Klucel (hydroxypropylcellulose) (HPC)
# [10] = dose: 50.0 mg/kg/injection, schedule: Q01DX009 (ip), vehicle: saline with Tween-80
# [11] = dose: 100.0 mg/kg/injection, schedule: Q01DX009 (ip), vehicle: saline with Tween-80
# [12] = dose: 200.0 mg/kg/injection, schedule: Q01DX009 (ip), vehicle: saline with Tween-80
# [13] = dose: 400.0 mg/kg/injection, schedule: Q01DX009 (ip), vehicle: saline with Tween-80
# [14] = dose: 25.0 mg/kg/injection, schedule: Q01DX009 (ip), vehicle: saline with Tween-80
# [15] = dose: 6.25 mg/kg/injection, schedule: Q01DX009 (ip), vehicle: saline with Tween-80
smiles,measurement,setting,value
CO[C@H](C(=O)[C@@H](O)[C@@H](C)O)[C@@H]1Cc2cc3cc(OC4CC(OC5CC(O)C(O)C(C)O5)C(O)C(C)O4)c(C)c(O)c3c(O)c2C(=O)[C@H]1OC1CC(OC2CC(OC3CC(C)(O)C(O)C(C)O3)C(O)C(C)O2)C(O)C(C)O1 (some centres not stated),T/C,"dose: 0.06 mg/kg/injection, schedule: Q01DX009 (ip), vehicle: saline",111 % of control
same,T/C,"dose: 0.12 mg/kg/injection, schedule: Q01DX009 (ip), vehicle: saline",101 % of control
same,T/C,"dose: 0.25 mg/kg/injection, schedule: Q01DX009 (ip), vehicle: saline",101 % of control
same,T/C,"dose: 0.5 mg/kg/injection, schedule: Q01DX009 (ip), vehicle: saline",117 % of control
same,T/C,[1],105 % of control
same,T/C,[2],113 % of control
O=CCC(O)C(O)C(O)CO (configuration not stated),T/C,"dose: 300.0 mg/kg/injection, schedule: Q01DX009 (ip), vehicle: saline",112 % of control
same,T/C,"dose: 600.0 mg/kg/injection, schedule: Q01DX009 (ip), vehicle: saline",103 % of control
same,T/C,"dose: 1200.0 mg/kg/injection, schedule: Q01DX009 (ip), vehicle: saline",104 % of control
same,T/C,"dose: 1800.0 mg/kg/injection, schedule: Q01DX009 (ip), vehicle: saline",108 % of control
same,T/C,"dose: 2400.0 mg/kg/injection, schedule: Q01DX009 (ip), vehicle: saline",101 % of control
CC(C)(C)N1CC1CNC(=O)C(=O)NCC1CN1C(C)(C)C (configuration not stated),T/C,"dose: 0.78 mg/kg/injection, schedule: Q01DX009 (ip), vehicle: saline with Tween-80",99 % of control
same,T/C,"dose: 1.56 mg/kg/injection, schedule: Q01DX009 (ip), vehicle: saline with Tween-80",101 % of control
same,T/C,[3],109 % of control
same,T/C,[4],150 % of control
O=NN(CCCl)C(=O)NC1[C@H](O)CCC[C@@H]1O (some centres not stated),T/C,"dose: 0.62 mg/kg/injection, schedule: Q01DX009 (ip), vehicle: saline",159 % of control
same,T/C,"dose: 1.25 mg/kg/injection, schedule: Q01DX009 (ip), vehicle: saline",225 % of control
same,T/C,"dose: 2.5 mg/kg/injection, schedule: Q01DX009 (ip), vehicle: saline",251 % of control
same,T/C,[5],190 % of control
CC1OC(=O)C(C(C)C)NC(=O)C(C(C)C)OC(=O)C(C(C)C)NC(=O)C(C)OC(=O)C(C(C)C)NC(=O)C(C(C)C)OC(=O)C(C(C)C)NC(=O)C(C)OC(=O)C(C(C)C)NC(=O)C(C(C)C)OC(=O)C(C(C)C)NC1=O (configuration not stated),T/C,"dose: 0.75 mg/kg/injection, schedule: Q01DX009 (oral), vehicle: Klucel (hydroxypropylcellulose) (HPC)",104 % of control
same,T/C,"dose: 1.5 mg/kg/injection, schedule: Q01DX009 (oral), vehicle: Klucel (hydroxypropylcellulose) (HPC)",104 % of control
same,T/C,"dose: 3.0 mg/kg/injection, schedule: Q01DX009 (oral), vehicle: Klucel (hydroxypropylcellulose) (HPC)",105 % of control
same,T/C,"dose: 6.0 mg/kg/injection, schedule: Q01DX009 (oral), vehicle: Klucel (hydroxypropylcellulose) (HPC)",100 % of control
same,T/C,"dose: 12.0 mg/kg/injection, schedule: Q01DX009 (oral), vehicle: Klucel (hydroxypropylcellulose) (HPC)",105 % of control
same,T/C,"dose: 24.0 mg/kg/injection, schedule: Q01DX009 (oral), vehicle: Klucel (hydroxypropylcellulose) (HPC)",104 % of control
Cc1cc(N/N=C/c2ccccn2)nc2ccccc12,T/C,"dose: 6.25 mg/kg/injection, schedule: Q01DX009 (ip), vehicle: Klucel (hydroxypropylcellulose) (HPC)",96 % of control
same,T/C,[6],94 % of control and 99 % of control
same,T/C,[7],97 % of control and 98 % of control
same,T/C,[8],93 % of control and 101 % of control
same,T/C,[9],103 % of control and 106 % of control
c1ccc2[nH]ncc2c1,T/C,[10],107 % of control
same,T/C,[11],104 % of control
same,T/C,[12],102 % of control
NC(CSSCC(N)C(=O)O)C(=O)O (configuration not stated),T/C,[11],101 % of control
same,T/C,[12],103 % of control
same,T/C,[13],117 % of control
same,T/C,"dose: 800.0 mg/kg/injection, schedule: Q01DX009 (ip), vehicle: saline with Tween-80",102 % of control
CC1(C)OCC2OC=CC(=O)C2O1 (configuration not stated),T/C,[14],102 % of control
same,T/C,[10],100 % of control
same,T/C,[11],97 % of control
same,T/C,[12],105 % of control
same,T/C,[13],95 % of control
NC(=O)CC(NC(=O)OCC1c2ccccc2-c2ccccc21)C(=O)O (configuration not stated),T/C,[6],116 % of control
same,T/C,[7],107 % of control
CC1CCC2C(C)C(=O)OC2C2(C)C(=O)C=CC12 (configuration not stated),T/C,"dose: 14.0 mg/kg/injection, schedule: Q01DX009 (ip), vehicle: Klucel (hydroxypropylcellulose) (HPC)",95 % of control
same,T/C,"dose: 22.0 mg/kg/injection, schedule: Q01DX009 (ip), vehicle: Klucel (hydroxypropylcellulose) (HPC)",95 % of control
same,T/C,"dose: 35.0 mg/kg/injection, schedule: Q01DX009 (ip), vehicle: Klucel (hydroxypropylcellulose) (HPC)",97 % of control
same,T/C,[8],97 % of control
Brc1ccc(C[N+]23CN4CN(CN(C4)C2)C3)cc1,T/C,[4],100 % of control
same,T/C,[14],98 % of control
same,T/C,[10],101 % of control
same,T/C,[11],108 % of control
same,T/C,[12],112 % of control
COc1ccc(C(Cn2ccnc2)Sc2ccc(Cl)c(Cl)c2)cc1 (configuration not stated),T/C,[3],94 % of control
same,T/C,[15],92 % of control and 96 % of control and 107 % of control
same,T/C,[4],95 % of control and 96 % of control and 103 % of control
same,T/C,[14],95 % of control and 97 % of control and 100 % of control
C=C(C)C(=NC(C)(C)C)Nc1ccccc1,T/C,[15],98 % of control
same,T/C,[4],122 % of control
same,T/C,[14],109 % of control
same,T/C,[10],91 % of control
same,T/C,[11],96 % of control
same,T/C,[12],114 % of control
COC12C(COC(N)=O)C3=C(C(=O)C(C)=C(N)C3=O)N1CC1C2N1C (configuration not stated),T/C,[1],112 % of control and 99 % of control
same,T/C,[2],88 % of control
same,T/C,"dose: 8.0 mg/kg/injection, schedule: Q01DX009 (ip), vehicle: saline",111 % of control and 89 % of control
COc1cc(NS(C)(=O)=O)ccc1Nc1c2ccc(Cl)cc2nc2c(OC)cccc12,T/C,"dose: 2.0 mg/kg/injection, schedule: Q01DX005 (ip), vehicle: water",165 % of control
same,T/C,"dose: 2.0 mg/kg/injection, schedule: Q01DX005 (iv), vehicle: water",111 % of control
same,T/C,"dose: 4.0 mg/kg/injection, schedule: Q01DX001 (iv), vehicle: water",101 % of control
same,T/C,"dose: 4.0 mg/kg/injection, schedule: Q01DX005 (ip), vehicle: water",174 % of control
same,T/C,"dose: 8.0 mg/kg/injection, schedule: Q01DX001 (iv), vehicle: water",102 % of control
same,T/C,"dose: 8.0 mg/kg/injection, schedule: Q01DX005 (ip), vehicle: water",178 % of control
same,T/C,"dose: 16.0 mg/kg/injection, schedule: Q01DX001 (iv), vehicle: water",100 % of control
Cc1ccc(C(CCCl)OC(C)C)cc1 (configuration not stated),T/C,[11],97 % of control
same,T/C,[12],94 % of control
same,T/C,[13],94 % of control
c1cc[c]([Sn]([NH]c2ncnc3[nH]cnc23)([NH]c2ncnc3[nH]cnc23)[c]2ccccc2)cc1,T/C,"dose: 12.5 mg/kg/injection, schedule: Q01DX009 (ip), vehicle: saline",105 % of control
same,T/C,"dose: 25.0 mg/kg/injection, schedule: Q01DX009 (ip), vehicle: saline",100 % of control
same,T/C,"dose: 50.0 mg/kg/injection, schedule: Q01DX009 (ip), vehicle: saline",100 % of control
same,T/C,"dose: 100.0 mg/kg/injection, schedule: Q01DX009 (ip), vehicle: saline",106 % of control
same,T/C,"dose: 200.0 mg/kg/injection, schedule: Q01DX009 (ip), vehicle: saline",116 % of control
CC(O)CCC(=O)c1ccoc1 (configuration not stated),T/C,"dose: 0.62 mg/kg/injection, schedule: Q03HX027 (ip), vehicle: saline",97 % of control
same,T/C,"dose: 1.25 mg/kg/injection, schedule: Q03HX027 (ip), vehicle: saline",113 % of control
same,T/C,"dose: 2.5 mg/kg/injection, schedule: Q03HX027 (ip), vehicle: saline",105 % of control
same,T/C,[5],105 % of control
same,T/C,"dose: 5.0 mg/kg/injection, schedule: Q03HX027 (ip), vehicle: saline",114 % of control
same,T/C,"dose: 10.0 mg/kg/injection, schedule: Q01DX009 (ip), vehicle: saline",93 % of control
same,T/C,"dose: 10.0 mg/kg/injection, schedule: Q03HX027 (ip), vehicle: saline",105 % of control
same,T/C,"dose: 20.0 mg/kg/injection, schedule: Q01DX009 (ip), vehicle: saline",98 % of control
CC(C)(OC(=O)NC(CC(N)=O)C(=O)O)c1ccc(-c2ccccc2)cc1 (configuration not stated),T/C,[9],97 % of control
same,T/C,"dose: 200.0 mg/kg/injection, schedule: Q01DX009 (ip), vehicle: Klucel (hydroxypropylcellulose) (HPC)",91 % of control
same,T/C,"dose: 400.0 mg/kg/injection, schedule: Q01DX009 (ip), vehicle: Klucel (hydroxypropylcellulose) (HPC)",89 % of control
